The results in this text go back to PubChem BioAssay (NCI).

Molecules are shown by their SMILES. Several values for one entry are separate records, joined by “and”; a condition that tells them apart may be missing. Identical values can stand only once.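 96-well plates; 48 h exposure; 5 concentrations. Endpoints by linear interpolation between flanking doses. Not reached: highest tested concentration assigned. GI50 = concentration required for 50% inhibition of growth. TGI is the concentration that stops growth completely.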 Some results are limits rather than exact numbers.

What all share (test): NCI tumour cell line growth inhibition, 48 h
Assay [1] relates to NCI-H460 lung.
Assay [2] concerns CCRF-CEM leukemia.
Assay [3] relates to IGROV1 ovarian.
Assay [4] has as its system BT-549 breast.
In assay [5] the test system is COLO 205 colon.
Assay [6] concerns NCI-H522 lung.
In assay [7] the test system is NCI-H226 lung.
For assay [8], the system named is LOX IMVI melanoma.
In assay [9] the test system is U251 CNS.
Assay [10] relates to OVCAR-4 ovarian.

`COc1ccc2c(c1)OC13Oc4cc(OC)ccc4C=C1CCCC3=C2`: the GI50 in assay [1] was > 100 µM; in assay [2], 5.88 µM; in assay [3], > 100 µM; in assay [4], > 100 µM; in assay [5], > 100 µM; in [6] it was > 100 µM. The GI50 in [7], in assay [8], in [9] and in assay [10] was > 100 µM throughout. Moreover, the TGI in assay [1], in assay [2], in assay [3], in assay [4], in [5] and in assay [6] was > 100 µM throughout. Besides, the TGI in [7], in assay [8], in [9] and in assay [10] was > 100 µM in each case.

Take `O=[N+]([O-])c1ccc2c(N=Nc3c(O)ccc4ccccc34)c(O)cc(S(=O)(=O)O)c2c1`: the TGI in assay [1] was > 100 µM; in assay [2], 50 µM and > 100 µM; in assay [3] it was 50 µM and > 100 µM; in [4], 50 µM and > 100 µM; in assay [5] it was 50 µM and > 100 µM; in assay [6], 50 µM and > 100 µM. Besides, the TGI is 50 µM in [7]; > 100 µM in assay [8]; 50 µM and > 100 µM in [9]; 50 µM in assay [10]. For the same molecule, the GI50 in assay [2] is 19.8 µM; in assay [3], 27.7 µM; in assay [4], 37.5 µM; in assay [5] it was 53.4 µM; in assay [6], 17.4 µM; in assay [9] it was 12.5 µM.

Regarding `COc1ccc(/C=C2\N=C3SC=C(N)N3C2=O)cc1`, the GI50 in assay [1] was 0.582 µM; in [2], 0.4 µM; in assay [3], 0.499 µM; in assay [4], 0.73 µM; in assay [5], 1.13 µM; in [6], 0.314 µM. The GI50 was 1.16 µM in [7], 0.964 µM in assay [8], 1.32 µM in [9] and 0.485 µM in [10]. Also, the TGI is 14 µM in assay [1]; 4.33 µM in assay [2]; 2.39 µM in assay [3]; 3.84 µM in assay [4]; 4.23 µM in assay [5]; 1.5 µM in assay [6]. Moreover, the TGI in assay [7] was 7.04 µM; in [8], 2.43 µM; in assay [9], 5.49 µM; in [10] it was 11 µM.

In the case of `NC(CSC(c1ccccc1)(c1ccccc1)c1ccc2ccccc2c1)C(=O)O` (stereo unspecified), the GI50 in [1] was 0.0485 µM; in [2], 0.0372 µM; in assay [3], 0.124 µM; in [4] it was 0.144 µM; in assay [5], 0.0816 µM; in [6], 0.0392 µM. In addition, the GI50 was 9.27 µM in assay [7], 0.172 µM in [8], 0.0408 µM in assay [9] and 13.1 µM in [10]. In addition, the TGI in assay [1] was 12.1 µM; in assay [2], > 39.4 µM; in assay [3], 21.6 µM; in assay [4], 22.8 µM; in assay [5], 0.875 µM; in assay [6], 1.49 µM. The TGI turned out to be 24.5 µM in assay [7], 18.1 µM in [8], 12.1 µM in assay [9] and 33.2 µM in assay [10].

For the molecule `CC1(C)OCN(c2ccc(Cl)cc2)Cn2c1nc1ccccc12`, the TGI is > 100 µM in assay [1]; > 100 µM in assay [2]; > 26.7 µM in assay [3]; > 100 µM in assay [4]; 12 µM in assay [5]; > 100 µM in assay [6]. Also, the TGI in assay [7], in assay [8], in assay [9] and in assay [10] was > 100 µM throughout.

On to `CCNCC(O)c1ccc(N)c([N+](=O)[O-])c1` (stereo unspecified), for which the TGI in [1], in assay [2], in assay [3], in [4], in [5] and in assay [6] was > 100 µM throughout. The TGI in [7], in [8], in assay [9] and in assay [10] was > 100 µM in each case.
